Laboratory results from patent publication US10836792B2, “Retro-inverso peptide inhibitors of cell migration, extracellular matrix and endothelial invasion by tumor cells” (ISTITUTO NAZIONALE TUMORI IRCCS “FONDAZIONE G. PASCALE”, priority 2016, dated 2020).

Experiments:
HT1080 cells [1] = assay: FBS-directed migration of HT1080 cells in Boyden chambers; type: cell-based, human; settings: 10 nM peptide, 10% FBS, 4 hrs
Description: FIG. 4 Retro-inverso peptides inhibit FBS-directed migration of HT1080 cells in a dose dependent manner (Example 4).
To assess whether retro-inverso peptides exert some effect on directional cell migration, HT1080 cells were allowed to migrate for 4 hrs in Boyden chambers toward serum-free medium (CTRL), 10% FBS (None) or 10% FBS mixed with peptides, each tested at 10 nM concentration. For quantitative analysis, the basal values assessed in the absence of FBS (CTRL) was taken as 100% and all values were reported relative to that. Data are the means±SD of two independent experiments, performed in triplicate. Statistical significance calculated against None with *p<0.01, **p<0.001 (A). All retro-inverso peptides caused a reduction of FBS-directed cell migration although to different extent. Peptides RI-1, RI-2, RI-3, RI-4 and RI-5 reduced by 49%, 46%, 65%, 9% and 6%, respectively, the extent of FBS-directed cell migration. Similar results were obtained when, HT1080 cell migration was monitored in real time for 18 hrs at 37° C., 5% CO2 by the xCELLigence system. Data represent mean±SD from a quadruplicate experiment representative of 2 replicates (B). Then, HT1080 cells were allowed to migrate in Boyden chambers toward 10% FBS plus increasing concentrations of RI-3, and data were expressed as a percentage of cells migrated toward FBS alone (100%) Inhibitory effect of RI-3 is dose-dependent, it starts in the high fM range, it seems to level off in the nM range and reaches an overall 50% reduction at 1×10^−13M (C).

HT1080 cells [2] = assay: FBS-directed matrigel invasion of HT1080 cells (xCELLigence RTCA); type: cell-based, human; settings: 10 nM peptide, growth medium, 20 hrs
Text: FIG. 5 Peptides RI-1, RI-2, RI-3, RI-4 and RI-5 reduced by 33%, 35%, 81%, 52% and 11%, respectively, the extent of FBS-directed matrigel invasion of HT1080 cells (A), as assessed in real time using the xCELLigence RTCA technology. The inhibitory effect of RI-3 is dose-dependent (B) (Example 5).
Cell migration is a prerequisite for cancer invasion. Therefore, we investigated whether retro-inverso peptides prevent matrigel invasion of HT1080 cells using the xCELLigence RTCA technology. Cells were seeded on polymerized matrigel and lower chambers were filled with DMEM (CTRL), growth medium (None) or growth medium with 10 nM the indicated peptides (A), or with increasing concentrations of RI-3 (B). Matrigel invasion was monitored in real time for 20 (A) or 18 (B) hrs at 37° C., 5% CO2 and the impedance values were automatically monitored as changes in cell index. Data represent means±SD from quadruplicate experiments, each representative of 2 replicates. HT1080 cells were able to cross matrigel in the presence of 10% FBS. All retro-inverso peptides caused a reduction of FBS-directed cell migration although to different extent.

[3] = system: human fibrosarcoma HT1080 cells; assay: Migration of HT1080 cells toward the peptides as chemoattractant (xCELLigence RTCA); type: cell-based; settings: 10 nM peptide as chemoattractant, 18 hrs, cell index
Text: Cell index due to the adhesion of migrating cells to microelectrodes are reported in (A); analysis of slopes representing the change rate of cell index generated in the time range 0-12 hr are reported in (B).
We assessed whether new generated retro-inverso peptides elicit themselves cell migration of human fibrosarcoma HT1080 cells. […] The results are depicted in FIG. 2. Data represent mean±SD from a quadruplicate experiment representative of 2 replicates (A).

sarcoma cell = settings: mouse model of lung colonization; cited from earlier work

| Substance | reduction of the extent of FBS-directed cell migration (HT1080 cells [1]) | reduction of the extent of FBS-directed cell invasion (matrigel) (HT1080 cells [2]) | cell migration triggered by the peptide [3] | inhibition of sarcoma cell invasion (sarcoma cell) |
| --- | --- | --- | --- | --- |
| Ac-(D)-Tyr-(D)-Arg-(D)-Glu-(D)-Arg-NH2 [RI-1] | 49% | 33% | – | – |
| Phenylacetyl-D-Arg-Aib-D-Arg-NH2 [RI-4] | 9% | 52% | – | – |
| Ac-(D)-Tyr-(D)-Arg-(D)-Ser-(D)-Arg-NH2 [RI-2] | 46% | 35% | – | – |
| 3-phenylpropionyl-D-Arg-Aib-D-Arg-NH2 [RI-5] | 6% | 11% | – | – |
| N-formyl-methionyl-leucyl-phenylalanine peptide [fMLF] | – | – | elicited a considerable cell migration | – |
| Ac-L-Arg-Aib-L-Arg-D-Cα(Me)Phe-NH2 [UPARANT] | – | – | – | does not inhibit sarcoma cell invasion |
